Assays:
[1] = test system: human normal melanocytes [ヒト正常メラノサイト]; assay: Melanin production inhibition (2-[2-14C]thiouracil uptake, 4 days); type: cell-based; settings: in words, from Table 1
[2] = test system: human normal melanocytes [ヒト正常メラノサイト]; assay: Detection of acidification in melanosomes (proton pump inhibition; DAMP fluorescence, confocal laser microscope); type: cell-based; settings: Figure 2; for Colour of overlaid photograph (DAMP + tyrosinase): yellow = melanosome acidified
tyrosinase [チロシナ−ゼ] [3] = biological target: T1, tyrosinase [チロシナ−ゼ] (Homo sapiens, UniProt P14679); settings: known from patent literature; cited from earlier work
T1 sequence (P14679 19-529): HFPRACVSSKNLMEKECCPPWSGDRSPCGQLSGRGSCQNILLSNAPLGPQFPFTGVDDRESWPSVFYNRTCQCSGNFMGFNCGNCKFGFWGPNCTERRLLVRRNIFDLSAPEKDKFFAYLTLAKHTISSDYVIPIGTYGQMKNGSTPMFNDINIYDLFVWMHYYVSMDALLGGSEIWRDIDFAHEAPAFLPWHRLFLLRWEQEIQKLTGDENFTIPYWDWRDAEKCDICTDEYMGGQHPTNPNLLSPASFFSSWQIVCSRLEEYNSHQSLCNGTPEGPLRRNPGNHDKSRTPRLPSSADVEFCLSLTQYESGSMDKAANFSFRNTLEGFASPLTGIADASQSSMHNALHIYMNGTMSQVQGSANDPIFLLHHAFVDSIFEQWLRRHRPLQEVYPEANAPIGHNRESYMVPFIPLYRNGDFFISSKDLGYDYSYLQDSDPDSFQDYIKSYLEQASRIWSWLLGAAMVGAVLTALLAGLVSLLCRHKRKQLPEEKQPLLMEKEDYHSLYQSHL

tyrosinase [チロシナ−ゼ] [4] = biological target: T2, tyrosinase [チロシナ−ゼ] (Homo sapiens, UniProt P14679); assay: Direct tyrosinase inhibition (human melanocyte extract, L-DOPA substrate); type: biochemical; settings: human normal melanocyte extract, 37℃, 15 min, in words, from Table 2
T2 construct: 溶解液を15000rpm、5分間遠心し、上清を回収し細胞抽出液とした; host or cells: normal human melanocytes (detergent lysate supernatant)

Compound	Melanin production inhibition compared with the positive control (hydroquinone) [1]	Red staining showing the presence of tyrosinase ([2]; versus untreated control)	Colour of overlaid photograph (DAMP + tyrosinase) [2]	further results
Euchrenone a6 [化合物1]	優れたメラニン産生抑制作用	コントロ−ルと同程度	黄色を呈している	Green staining showing the degree of acidification (DAMP) ([2]; versus untreated control): 濃くなっており
Euchrenone a3 [化合物2]	優れたメラニン産生抑制作用	–	黄色より幾分オレンジ色がかっている	–
CCCCc1ccc(O)cc1O [4−n−ブチルレゾルシノ−ル]	–	–	–	Tyrosinase inhibitory activity (tyrosinase [チロシナ−ゼ] [3]): 強力なチロシナ−ゼ阻害活性
NC(=S)Nc1ccccc1 [フェニルチオウレア]	–	–	–	Direct tyrosinase inhibition (tyrosinase [チロシナ−ゼ] [4]): 顕著なチロシナ−ゼ直接阻害作用を示した
Oc1ccc(O)cc1 [ハイドロキノン, reference compound]	–	–	–	Melanin production inhibition [1]: 優れたメラニン産生抑制作用
CC(C)=CCc1cc([C@@H]2CC(=O)c3c(O)c(CC=C(C)C)c(O)c(CC=C(C)C)c3O2)cc(O)c1O [化合物3, amorisin]	陽性対照と同等乃至はそれ以上のメラニン産生抑制作用	同程度	–	–
